Test results as given in patent publication US9849131B2 (AUTIFONY THERAPEUTICS LIMITED, priority 2009, dated 2017).

Legend:
hKv3.2 = molecular target: T1, hKv3.2 (Homo sapiens, UniProt Q96PR1); assay: IonWorks Quattro assay, secondary analysis of activation time constant (Tauact); type: cell-based; conditions: classification from effect on Tauact
T1 construct: expressed in transfected cells; host or cells: CHO-K1
T1 sequence (Q96PR1 1-638): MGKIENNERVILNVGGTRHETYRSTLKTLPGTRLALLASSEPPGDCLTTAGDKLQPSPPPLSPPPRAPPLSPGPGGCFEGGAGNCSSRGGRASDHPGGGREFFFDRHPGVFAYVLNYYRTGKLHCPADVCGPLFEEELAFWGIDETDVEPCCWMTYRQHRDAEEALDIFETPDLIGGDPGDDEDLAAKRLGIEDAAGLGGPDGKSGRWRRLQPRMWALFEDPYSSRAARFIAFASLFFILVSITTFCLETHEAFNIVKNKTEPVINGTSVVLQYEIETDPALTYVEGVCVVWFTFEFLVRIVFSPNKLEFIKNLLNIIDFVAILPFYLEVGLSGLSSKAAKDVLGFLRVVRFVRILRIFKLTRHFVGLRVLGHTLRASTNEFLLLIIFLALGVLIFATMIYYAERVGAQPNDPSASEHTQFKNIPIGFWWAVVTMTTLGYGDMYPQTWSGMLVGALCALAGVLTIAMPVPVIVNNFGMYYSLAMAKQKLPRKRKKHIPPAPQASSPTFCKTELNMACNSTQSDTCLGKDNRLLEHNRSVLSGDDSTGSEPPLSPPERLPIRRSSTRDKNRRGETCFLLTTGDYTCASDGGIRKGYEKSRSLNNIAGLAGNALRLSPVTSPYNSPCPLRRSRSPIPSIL
Method: A stable cell line expressing human Kv3.2 channels (hKv3.2) was created by transfecting Chinese Hamster Ovary (CHO)-K1 cells with a pCIH5-hKv3.2 vector. Cells were cultured in DMEM/F12 medium supplemented by 10% Foetal Bovine Serum, 1× non-essential amino acids (Invitrogen) and 500 ug/ml of Hygromycin-B (Invitrogen). Cells were grown and maintained at 37° C. in a humidified environment containing 5% CO2 in air.
The day of the experiment, cells were removed from the incubator and the culture medium removed. Cells were washed with 5 ml of Dulbecco's PBS (DPBS) calcium and magnesium free and detached by the addition of 3 ml Versene (Invitrogen, Italy) followed by a brief incubation at 37° C. for 5 minutes. The flask was tapped to dislodge cells and 10 ml of DPBS containing calcium and magnesium was added to prepare a cell suspension. The cell suspension was then placed into a 15 ml centrifuge tube and centrifuged for 2 min at 1200 rpm. After centrifugation, the supernatant was removed and the cell pellet re-suspended in 4 ml of DPBS containing calcium and magnesium using a 5 ml pipette to break […] up the pellet. Cell suspension volume was then corrected to give a cell concentration for the assay of approximately 3 million cells per ml.
Experiments were conducted at room temperature using IonWorks Quattro™ planar array electrophysiology technology (Molecular Devices Corp.) with PatchPlate™ PPC. Stimulation protocols and data acquisition were carried out using a microcomputer (Dell Pentium 4). Planar electrode hole resistances (Rp) were determined by applying a 10 mV voltage step across each well. These measurements were performed before cell addition. […] Following this, amphotericin-B solution was added to the intracellular face of the electrode to achieve intracellular access. Cells were held at −70 mV. Leak subtraction was conducted in all experiments by applying 50 ms hyperpolarizing (10 mV) prepulses to evoke leak currents followed by a 20 ms period at the holding potential before test pulses. From the holding potential of −70 mV, a first test pulse to −15 mV was applied for 100 ms and following a further 100 ms at −70 mV, a second pulse to 40 mV was applied for 50 ms. Cells were then maintained for a further 100 ms at −100 mV and then a voltage ramp from −100 mV to 40 mV was applied over 200 ms. In all experiments, the test pulses protocol was performed in the absence (pre-read) and presence (post-read) of the test compound. Pre- and post-reads were separated by the compound addition followed by a 3 minute incubation.
The magnitude of the effect of a compound can be determined from the time constant (Tauact) obtained from a non-linear fit, using the equation given below, of the rise in Kv3.1 or Kv3.2 currents following the start of the depolarising voltage pulse. Y=(Y0−Ymax)*exp(−K*X)+Ymax
Where: • Y0 is the current value at the start of the depolarising voltage pulse; • Ymax is the plateau current;
K is the rate constant, and Tauact is the activation time constant, which is the reciprocal of K.

[1] = tested on: parvalbumin-positive interneurons in the somatosensory cortex; assay: Firing of parvalbumin-positive interneurons in somatosensory cortex slices, in vitro (Example 90); type: cell-based, mouse; conditions: vs TEA alone, p<0.05
common marmosets = assay: Behaviour of the common marmoset on threatening human approach (Example 94); type: in vivo; conditions: for Number of Jumps / Number of postures: 2 minute test, mean ± sem
Text: Central anxiolytic effects of a test compound can be assessed from the ability of the compound to reduce the characteristic defensive postures of marmosets in response to a threatening approach by a human. The test can also be used to assess the sedative or hypnotic effects of a test compound from its ability to reduce the number of jumps made by the animals. The study was based on the method described in Costall, B. et al (1988) Br. J. Pharmac. 95 p 475P. Laboratory-bred (GSK SpA, Italy) male and female common marmosets over 2 years of age, weighing 300-500 g were used in the study. The animals were caged in couples in a housing room maintained at 25±1° C., 60% humidity, and a 12 hour light/dark cycle (lights on at 0600, with 30 minutes simulated dawn and twilight). Both animals in each pair were involved in the test, which was carried out with the animals in their home cage.
The postures recorded in the test were those described by Costall et al supra; • Genital presenting (“Tail Posture”): the animal's back is turned to the observer with elevation of the tail to expose the genital region; • Scent-marking: the animal scent-marks the cage surfaces using circum-anal and circum-genital scent glands; • Slit-stare: the animal stares at the observer with flattened ear tufts and eyes reduced to “slits” • Arch-piloerection: the animal moves around the cage with arched back and full-body piloerection, failing to make eye contact with the observer
The number of jumps from the back of the cage to the cage front provided an index of locomotor activity, which could be used to assess the potential for a hypnotic effect, sedation, or locomotor stimulation produced by the test compound.

Male CD-1 mice = assay: Psychostimulant (amphetamine)-induced hyperactivity in mice (Example 93); conditions: mouse; for Total Distance Travelled (cm): 60 minutes, mean ± sem
[2] = 0.3 mg/kg p.o. 2 hours before test
[3] = 1 mg/kg p.o. 2 hours before test
[4] = 3 mg/kg p.o. 2 hours before test

CC[C@H]1NC(=O)N(c2ccc(Oc3ccc(C)c(OC)c3)nc2)C1=O [Example 19, (5R)-5-ethyl-3-(6-{[4-methyl-3-(methyloxy)phenyl]oxy}-3-pyridinyl)-2,4-imidazolidinedione]
acts as positive or negative modulator of Kv3.1 and/or Kv3.2 (hKv3.2): positive modulators
reversal of TEA-induced lowering of maximal firing frequency ([1]; TEA (0.5 mM) plus compound at 10 μM): significantly reversed
reversal of TEA-induced lowering of maximal firing frequency ([1]; TEA (0.5 mM) plus compound): significantly reversed
Number of Jumps (common marmosets; [2]): 21.3 ± 2.7
Number of postures (common marmosets; [2]): 12.2 ± 1.03
effect on the number of jumps (common marmosets; 1 mg/kg p.o.): significantly reduced
Number of Jumps (common marmosets; [3]): 15.3 ± 2.5
Number of postures (common marmosets; [3]): 10.0 ± 1.2
effect on the number of jumps (common marmosets; 3 mg/kg p.o.): significantly reduced
Number of Jumps (common marmosets; [4]): 11.5 ± 1.9
Number of postures (common marmosets; [4]): 9.7 ± 1.1
effects on postures (common marmosets; any dose (0.3, 1, 3 mg/kg p.o.)): without any effects
effect on the increase in total distance travelled produced by amphetamine (Male CD-1 mice; 30 mg/kg p.o.): significantly reduced
effect on the increase in locomotor activity induced by amphetamine (Male CD-1 mice; 60 mg/kg p.o., similar to clozapine 3 mg/kg i.p.): further reduced
Total Distance Travelled (cm) (Male CD-1 mice; AMPH 2 mg/kg i.p. + compound 30 mg/kg p.o. 30 minutes before): 5790 ± 1436 cm
Total Distance Travelled (cm) (Male CD-1 mice; AMPH 2 mg/kg i.p. + compound 60 mg/kg p.o. 30 minutes before): 1494 ± 378 cm
